Measured values published in US20100139154A1, “PROCESS FOR FERMENTIVE PREPARATION OF ALCOHOLS AND RECOVERY OF PRODUCT” (E.I. DU PONT DE NEMOURS AND COMPANY, priority 2008, published 2010).
Several values for one entry are separate records, joined by “and”; a condition that tells them apart may be missing. Equal values may be shown once.

How the values were obtained:
[1] = test system: Lactobacillus fermentum (ATCC 14931); experiment: Glucose Uptake Index (GUI) of Lactobacillus fermentum culture with 5% v/v ionic liquid; assay type: cell-based; details: MRS medium, 16 hours, 30° C., paired control GUI 99.8, 26.5 or 94.6
[2] = test system: Lactobacillus zeae (ATCC 15820); experiment: Glucose Uptake Index (GUI) of Lactobacillus zeae culture with 5% v/v ionic liquid
Protocol: This media was made per bottle instructions using sterilized water, and was then again filter sterilized before use. The test tubes were incubated at 30° C. at 175 rpm in an Inova Incubator (Karlsbad, Sweden). After 24 hours, the test tubes were removed and stored at 4° C.
A portion (50 μL) of each stock culture prepared as above was inoculated into separate 15 mL sterile polypropylene culture tubes containing fresh MRS medium (3 mL). These tubes were incubated for four hours at 30° C. at 175 rpm. After four hours, one of these culture tubes was inoculated with 150 μL (5% v/v) of each of the ionic liquids as listed in Table 1 below. […] Each tube that was inoculated with an ionic liquid was also paired with a tube that received no ionic liquid and was used as a control.
All culture tubes were then incubated again under the same conditions for another 16 hours. After 16 hours, the culture tubes were stored at −80° C. Analytical samples were taken from each culture tube by thawing the samples and spinning them at 28,000 rpm and 20° C. for ten minutes in a Sorvall Instruments RC3C (Newtown Conn.) centrifuge. One milliliter of supernatant was removed from each tube and was subjected to high performance liquid chromatography (HPLC) analysis using an Agilent (Palo Alto Calif.) HPLC 1100 with a BioRad Aminex 87-H using 0.008 N sulfuric acid with both diode array and refractive index detection, and an Agilent HPLC 1100 with a Shodex OH-pak column using 0.01 N sulfuric acid. Data analysis was performed using the Agilent Chemstation software and Microsoft Excel.
The glucose uptake index was calculated by taking the total glucose consumed in a fermentation sample, whether or not the sample contained an ionic liquid, and dividing it by the total initial glucose present in the broth at the start of fermentation.

[3] = Extraction of isobutanol from an aqueous solution by ionic liquid, HPLC; assay type: physicochemical; details: concentration in aqueous solution after overnight equilibration with 5 vol % ionic liquid; control 416 mM
Protocol: (§1) Ethanol and isobutanol concentration in the solution was measured using HPLC as described above following thorough mixing and overnight equilibration of the contents of the vial.

[4] = Extraction of ethanol from an aqueous solution by ionic liquid, HPLC; assay type: physicochemical; details: concentration in aqueous solution after overnight equilibration with 5 vol % ionic liquid; control 684 mM
Protocol: as §1

Molecule | GUI of Sample (Glucose Utilization Index in the presence of 5% (v/v) of the ionic liquid phase) [1] | GUI of Sample (Glucose Utilization Index in the presence of 5% (v/v) of the ionic liquid phase) [2] | Isobutanol [3] [mM] | Ethanol [4] [mM]
1-ethyl-3-methylimidazolium bis(pentafluoroethylsulfonyl)imide [[EMIM] [BEI]] | 25.5 | 36.0 |  | 
1-butyl-3-methylimidazolium 1,1,2-trifluoro-2-(perfluoroethoxy)ethanesulfonate [[BMIM] [TPES]] | 7.21 |  |  | 
CCCCn1cc[n+](C)c1.F[B-](F)(F)F [[BMIM] [BF4], 1-butyl-3-methylimidazolium tetrafluoroborate] | 9.74 |  |  | 
1-butyl-3-methylpyrrolidinium bis(trifluoromethylsulfonyl)imide [[BMP] [Tf2N]] | 0.96 | 49.8 | 391 | 676
tetradecyl(tri-n-hexyl)phosphonium 1,1,2-trifluoro-2-(perfluoroethoxy)ethanesulfonate [[6,6,6,14-P] [TPES]] | 92.8 | 62.8 |  | 
CCCCCCn1cc[n+](C)c1.FC(F)(F)C(F)(F)[P-](F)(F)(F)(C(F)(F)C(F)(F)F)C(F)(F)C(F)(F)F [[HMIM] [FAP], 1-hexyl-3-methylimidazolium tris(pentafluoroethyl)trifluorophosphate] | 84.7 |  | 404 | 680
1-butyl-3-methylimidazolium bis(trifluoromethylsulfonyl)imide [[BMIM] [Tf2N]] | 26.8 |  |  | 
1-hexyl-3-methylimidazolium bis(trifluoromethylsulfonyl)imide [[HMIM] [Tf2N]] | 19.5 | 66.2 | 388 | 678
1-butyl-3-methylimidazolium 1,1,2-trifluoro-2-(trifluoromethoxy)ethanesulfonate [[BMIM] [TTES]] | 16.2 |  |  | 
CCCCn1cc[n+](C)c1.F[P-](F)(F)(F)(F)F [[BMIM] [PF6], 1-butyl-3-methylimidazolium hexafluorophosphate] | 88.3 |  |  | 
3-methyl-1-propylpyridinium bis(trifluoromethylsulfonyl)imide [[PMPy] [Tf2N]] | 26.1 | 63.5 |  | 
1-butyl-3-methylimidazolium 2-(1,2,2,2-tetrafluoroethoxy)-1,1,2,2-tetrafluoroethanesulfonate [[BMIM] [FS]] | 24.0 |  |  | 
1-ethyl-3-methylimidazolium bis(trifluoromethylsulfonyl)imide [[EMIM] [Tf2N]] | 54.5 | 51.2 | 389 | 670
1-butyl-3-methylimidazolium 1,1,2,3,3,3-hexafluoropropanesulfonate [[BMIM] [HFPS]] | 8.0 and 11.5 |  |  | 
